What was measured:
TGFβR2 = TGFβR2 (Homo sapiens, UniProt P37173); test: In vitro enzymatic activity inhibition test (TGFβR2), ADP-Glo Kinase Detection Kit; assay type: biochemical; conditions: MBP substrate, calculated from percent inhibition at 1000nM, 100nM, 10nM
Method: Test Example 2: In vitro enzymatic activity inhibition test (TGFβR2).
(§1) Experimental method: According to the instructions of ADP-Glo™ Kinase Detection Kit (Promega), the inhibitory effect of the compounds of the present invention on the enzymatic activity of TGFβR2 was determined, and the steps were as follows: TGFβR2 enzyme were pre-incubated with different concentrations of test compounds (1000nM, 100nM, 10nM) at 30°C for 30 min, myelin basic protein (MBP) and adenosine triphosphate (ATP) were added to initiate the reaction. The incubation was performed at 30°C for 3 h, followed by an addition of ADP-Glo™ reagent and incubated at room temperature for 90 min, kinase detection reagent was then added. The chemiluminescence signal values were detected after incubation at room temperature for another 30 min.
(§2) When the percent inhibition was between 30% and 80%, the median inhibitory concentration (IC50) or range of the compound was calculated according to the following formula: IC50 = X × (1 - percent inhibition rate (%)) / percent inhibition rate (%), wherein X is the concentration of the compound at which the inhibition rate is between 30% and 80%.

TGFβR1 = biological target: T1, TGFβR1 (Homo sapiens, UniProt P36897); test: In vitro enzymatic activity inhibition test (TGFβR1), ADP-Glo Kinase Detection Kit; assay type: biochemical; conditions: calculated from percent inhibition at 1000 nM, 100 nM, 10 nM
T1 sequence (P36897 34-503): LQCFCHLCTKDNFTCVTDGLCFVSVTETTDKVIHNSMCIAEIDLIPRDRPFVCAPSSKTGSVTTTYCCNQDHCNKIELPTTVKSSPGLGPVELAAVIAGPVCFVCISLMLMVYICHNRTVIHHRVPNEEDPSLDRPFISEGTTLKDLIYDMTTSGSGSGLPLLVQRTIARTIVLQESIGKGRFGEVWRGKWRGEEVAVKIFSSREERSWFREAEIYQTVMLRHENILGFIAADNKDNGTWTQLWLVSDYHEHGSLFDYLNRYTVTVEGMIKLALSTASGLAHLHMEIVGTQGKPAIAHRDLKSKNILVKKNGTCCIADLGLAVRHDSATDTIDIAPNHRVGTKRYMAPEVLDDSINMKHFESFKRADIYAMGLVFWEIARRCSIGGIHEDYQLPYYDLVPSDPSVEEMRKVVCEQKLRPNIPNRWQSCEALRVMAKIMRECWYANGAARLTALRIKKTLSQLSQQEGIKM
Method: Test Example 1: In vitro enzymatic activity inhibition test (TGFβR1).
as §1, with “TGFβR1” for “TGFβR2”, “(1000 nM, 100 nM, 10 nM)” for “(1000nM, 100nM, 10nM)”, “TGFβR1 peptide” for “myelin basic protein (MBP)”, “Chemiluminescence” for “The chemiluminescence”
as §2, with “percent inhibition rate was between” for “percent inhibition was between”

[1] = system: TGFβ/Smads signaling pathway in HEK293-SBE cells; test: In vitro cell activity inhibition test, Bright-Glo luciferase reporter in HEK293-SBE cells; assay type: cell-based; conditions: TGFβ 0.5 ng/ml, luciferase reporter gene method
Method: Test Example 3: In vitro cell activity inhibition test
Experimental method: According to the instructions of Bright-Glo™ luciferase detection kit (Promega), the inhibitory effect of the compounds of the present invention on TGFβ/Smads signaling pathway in HEK293-SBE cells was determined. The steps were as follows: HEK293-SBE cells (Bps bioscience) were added to a 96-well plate (10% FBS medium), 30,000/well, and cultured overnight at 37°C and 5% CO2. The medium was changed to 0.5% FBS medium, and the test compound diluted in 0.5% FBS medium was added. The highest final concentration of the test compound was 10 µM with 4-fold dilution, and a total of 8 concentration gradients. After 4-5 hours of incubation, 10 µl of TGFβ was added. The final concentration of TGFβ was 0.5 ng/ml. 10 µl of medium added in replace of TGFβ was the negative control. In the blank control, no test compound was added, and TGFβ was added. Bright Glo reagent was added to each well, and the chemiluminescence signal value was read on a microplate reader.
The percent inhibition rates of the test compound at different concentrations were plotted against the compound concentrations, the curve was fitted according to the four-parameter model, and the IC50 value was calculated by the following formula: y = Min + (Max - Min) / (1 + (x / IC50) ^ (-Hillslope)), wherein: y is percentage inhibition rate; Max and Min are the maximum and minimum values of the fitted curve, respectively; x is the logarithmic concentration of compound; and Hillslope is the slope of the curve.

Chain of TGFβR2 (P37173 23-567): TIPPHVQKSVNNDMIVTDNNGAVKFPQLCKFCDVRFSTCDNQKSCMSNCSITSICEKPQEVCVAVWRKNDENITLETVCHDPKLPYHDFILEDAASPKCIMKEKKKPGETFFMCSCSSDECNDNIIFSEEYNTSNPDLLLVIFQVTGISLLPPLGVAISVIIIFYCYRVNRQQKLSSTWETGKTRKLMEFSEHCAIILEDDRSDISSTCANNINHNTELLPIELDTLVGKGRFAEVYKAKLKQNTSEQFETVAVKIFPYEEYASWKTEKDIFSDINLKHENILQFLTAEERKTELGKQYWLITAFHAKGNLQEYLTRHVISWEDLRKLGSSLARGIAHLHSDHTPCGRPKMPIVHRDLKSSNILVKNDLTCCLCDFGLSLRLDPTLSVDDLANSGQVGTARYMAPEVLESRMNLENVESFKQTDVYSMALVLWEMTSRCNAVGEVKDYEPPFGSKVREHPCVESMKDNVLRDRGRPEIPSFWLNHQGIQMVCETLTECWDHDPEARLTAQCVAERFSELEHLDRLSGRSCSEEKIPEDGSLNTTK

Structure (SMILES) | IC50 (TGFβR2) [nM] | IC50 (TGFβR1) [nM] | IC50 [1] [nM]
Cc1cccc(-n2nccc2-c2ccn3ncnc3c2)n1 [Example 2, 7-(1-(6-methylpyridin-2-yl)-1H-pyrazol-5-yl)-[1,2,4]triazolo[1,5-a]pyridine] | > 1000 | 9.83 ± 4.79 | 
Cc1cccc(-n2nccc2-c2ccn3nccc3c2)n1 [Example 3, 5-(1-(6-methylpyridin-2-yl)-1H-pyrazol-5-yl) pyrazolo[1,5-a]pyridine] | > 1000 | 43.8 ± 6.08 | 29.1 ± 2.5
Cc1cc(CNc2cc(-c3ccc4ncsc4c3)n(-c3cccc(C)n3)n2)ccn1 [Example 9, 5-(benzo[d]thiazol-6-yl)-1-(6-methylpyridin-2-yl)-N-((2-methylpyridin-4-yl)methyl)-1H-pyrazol-3-amine] |  | 27.4 ± 4.89 | 43.2 ± 2.54
